Results on three compounds are retold here after ChEMBL document CHEMBL4130412, “Characterization of the Degradation Profile of Umbelliprenin, a Bioactive Prenylated Coumarin of a Ferulago Species” (J Nat Prod, 2017).

Molecules are shown by their SMILES. A value given as a limit tells only on which side of the number the result lay.

Holding throughout (assay type): physicochemical
Data set [1] can be described thus: Drug level treated with umbelliprenin under sunlight in EtOH solution after 6 days by 1H-NMR analysis. The conditions noted are these: 144 h.
A short description of data set [2]: Thermal stability of the compound assessed as compound degradation at 40 degC in EtOH solution after 48 hrs by HPLC analysis. The conditions noted are these: read-out: Drug degradation.
The nature of data set [3]: Stability of the compound assessed as compound degradation in 0.1 M NaOH solution at 60 to 80 degC using solid sample up to 96 hrs by HPLC analysis.
A short description of data set [4]: Thermal stability of the compound at 40 degC in EtOH solution after 3 to 4 days by HPLC analysis.
The nature of data set [5]: Photostability of the compound assessed as parent compound remaining under sunlight exposed for 6 days in EtOH solution measured in presence of UV-B filter octinoxate by TLC method. The settings on record: read-out: Stability.
The nature of data set [6]: Photostability of the compound assessed as parent compound remaining under sunlight exposed for 6 days in EtOH solution measured by TLC method. The settings on record: read-out: Stability.
Data set [7] can be described thus: Thermal stability of the compound assessed as compound degradation at 80 degC in EtOH solution measured up to 96 hrs by HPLC analysis. The conditions noted are these: read-out: Drug degradation.
Data set [8] in a line: Stability of the compound assessed as compound degradation in 0.1 M NaOH solution at room temperature in EtOH solution after 96 hrs by HPLC analysis. The settings on record: 0.1 M NaOH solution in EtOH solution; read-out: Drug degradation.
Data set [9] in a line: Thermal stability of the compound at 37 degC in EtOH solution after 3 to 4 days by HPLC analysis.
Data set [10] is described as follows: Stability of the compound assessed as compound degradation in 0.1 M HCl solution at 60 degC in EtOH solution after 24 hrs by HPLC analysis. The conditions noted are these: 0.1 M HCl solution in EtOH solution; read-out: Drug degradation.
A short description of data set [11]: Photostability of the compound assessed as parent compound remaining under sunlight exposed for 3 days in EtOH solution measured in presence of UV-A filter avobenzone by TLC method. The conditions noted are these: read-out: Stability.
A short description of data set [12]: Photostability of the compound assessed as parent compound remaining under sunlight exposed for 3 days in EtOH solution measured in presence of antioxidant DL-alpha-tocopherol acetate by TLC method. The conditions noted are these: read-out: Stability.
Data set [13] is described as follows: Photostability of the compound assessed as parent compound remaining under sunlight exposed for 3 days in EtOH solution measured in presence of UV-A filter DHHB by TLC method. The settings on record: read-out: Stability.
Data set [14] in a line: Photostability of the compound assessed as parent compound remaining under sunlight exposed for 6 days in EtOH solution measured in presence of UV-A filter avobenzone by TLC method. The settings on record: read-out: Stability.
Data set [15] is described as follows: Photostability of the compound assessed as parent compound remaining under sunlight exposed for 6 days in EtOH solution measured in presence of UV-A filter DHHB by TLC method. The settings on record: read-out: Stability.
Data set [16] can be described thus: Stability of the compound assessed as compound degradation in 0.1 M HCl solution at room temperature in EtOH solution after 96 hrs by HPLC analysis. The conditions noted are these: 0.1 M HCl solution in EtOH solution; read-out: Drug degradation.
Data set [17] can be described thus: Photochemical stability of the compound assessed as compound degradation under 254 nm UV-light exposure using solid samples measured up to 96 hrs by HPLC analysis. The settings on record: read-out: Drug degradation.
Data set [18] in a line: Photochemical stability of the compound assessed as compound degradation under sunlight in EtOH solution measured after 4 days by HPLC analysis. The settings on record: read-out: Drug degradation.
Data set [19] in a line: Stability of the compound assessed as compound degradation in 3% H2O2 solution at room temperature in EtOH solution after 96 hrs by HPLC analysis. The settings on record: 3% H2O2 solution in EtOH solution; read-out: Drug degradation.
A short description of data set [20]: Stability of the compound assessed as compound degradation in 3% H2O2 solution at 40 degC in EtOH solution after 96 hrs by HPLC analysis. The settings on record: 3% H2O2 solution in EtOH solution; read-out: Drug degradation.
A short description of data set [21]: Thermal stability of the compound assessed as compound degradation at 37 degC in EtOH solution after 48 hrs by HPLC analysis. The settings on record: read-out: Drug degradation.
Data set [22] in a line: Photochemical stability of the compound assessed as compound degradation under 254 nm UV-light exposure in EtOH solution measured after 24 hrs by HPLC analysis. The settings on record: read-out: Drug degradation.
The nature of data set [23]: Photostability of the compound assessed as parent compound remaining under sunlight exposed for 3 days in EtOH solution measured in presence of UV-B filter octinoxate by TLC method. The settings on record: read-out: Stability.
Data set [24] is described as follows: Photochemical stability of the compound assessed as compound degradation under sunlight using solid samples measured up to 96 hrs by HPLC analysis. The conditions noted are these: read-out: Drug degradation.
A short description of data set [25]: Photochemical stability of the compound assessed as compound degradation under sunlight in EtOH solution measured after 24 hrs by HPLC analysis. The conditions noted are these: read-out: Drug degradation.
Data set [26] can be described thus: Stability of the compound assessed as compound degradation in 0.1 M HCl solution at 60 to 80 degC using solid sample up to 96 hrs by HPLC analysis. The conditions noted are these: buffer.
Data set [27] in a line: Thermal stability of the compound assessed as compound degradation at 37 to 80 degC using solid samples after 96 hrs by HPLC analysis. The conditions noted are these: read-out: Drug degradation.
Data set [28] in a line: Stability of the compound assessed as compound degradation in 3% H2O2 solution at room temperature in EtOH solution after 24 hrs by HPLC analysis. The settings on record: 3% H2O2 solution in EtOH solution; read-out: Drug degradation.
A short description of data set [29]: Stability of the compound assessed as compound degradation in 3% H2O2 solution at 40 degC in EtOH solution after 24 hrs by HPLC analysis. The settings on record: 3% H2O2 solution in EtOH solution; read-out: Drug degradation.
Data set [30] is described as follows: Photostability of the compound assessed as parent compound remaining under sunlight exposed for 3 days in EtOH solution measured by TLC method. The settings on record: read-out: Stability.
A short description of data set [31]: Photostability of the compound assessed as parent compound remaining under sunlight exposed for 6 days in EtOH solution measured in presence of antioxidant DL-alpha-tocopherol acetate by TLC method. The settings on record: read-out: Stability.
Data set [32] is described as follows: Stability of the compound assessed as compound degradation in 0.1 M NaOH solution at 60 degC in EtOH solution after 96 hrs by HPLC analysis. The settings on record: 0.1 M NaOH solution in EtOH solution; read-out: Drug degradation.

Consider `CC(C)=CCC/C(C)=C/CC/C(C)=C/COc1ccc2c(c1)OC(=O)[C@@H]1[C@@H]3C(=O)Oc4cc(OC/C=C(\C)CC/C=C(\C)CCC=C(C)C)ccc4[C@@H]3[C@H]21`, for which, in data set [1], the Drug metabolism result was “Metabolite_Detected”.

For the compound `C/C1=C\COc2ccc3c(c2)OC(=O)C2C3C(CC/C(C)=C/CC1)C2(C)C` (stereo not drawn), in data set [1], the Drug metabolism result was “Metabolite_Detected”.

In the case of `CC(C)=CCC/C(C)=C/CC/C(C)=C/COc1ccc2ccc(=O)oc2c1` [UMBELLIPRENIN], the results for the degraded at 48 h in [2] and in data set [21] were 12.7% and 1.8%, respectively. Further, the Stability entry in data set [3] is on record as “Stable”; in data set [4] it was “Unstable”; in data set [9], “Unstable”; in data set [26] it was “Stable”. Further, the remaining at 144 h in [5] came out at 13%; in [6], 9%; in [14], 88%; in data set [15], 98%; in [31] it was 10%. Besides, the degraded at 96 h stood at 34% in data set [7]; 85% in data set [8]; 22.2% in data set [16]; 59.4% in data set [17]; 91.6% in [18]; 41.6% in [19]. In addition, the degraded at 96 h in data set [20] is 50.1%; in [24] it was 64.7%; in [27], 54.6 to 65.1%; in [32], 85%. The degraded at 24 h was greater than 95% in data set [10]; 25.8% in [22]; 70.4% in [25]; 19.1% in data set [28]; 39.4% in data set [29]. Moreover, the remaining at 72 h in data set [11] was determined as 97%; in data set [12], 32%; in data set [13], 100%; in data set [23] it was 56%; in data set [30], 35%.
